Experimental data from US11213499B1, “Use of 3,3′-diselenodipropionic acid (DSePA) as an anticancer agent” (Secretary, Department of Atomic Energy, priority 2020, dated 2022).

Test system: human K562 xenograft
Experiment: Anti-tumor effect in human K562 xenograft model
Assay type: in vivo
Settings: for mortality: study period of 30 days
Method: These xenografts representative of NSCLC and CML respectively are considered to be highly aggressive and resistant to chemotherapy treatment. Therefore, any new chemotherapy agent against these cancers is very much sought. For the experiment, a total of 12 mice bearing A549 or K562 tumors of volume in the range of ˜50 mm^3 were divided into two groups (I & II), each group comprising of six mice. […] The group II was administered DSePA daily dissolved in sterile saline through oral route at a dosage of 1 mg/Kg body weight. The tumor volume and body weight of mice from each group were monitored daily for a total period of 30 days from the day of start. The animals were also checked for mortality if any throughout the study period. The experiment in A549 tumor was repeated three times (n=18 for each group) and the experiment in K562 tumor was repeated two times (n=12 for each group). […] This is the first study to show the anticancer activity of DSePA per se using xenograft model of human lung cancer (A549) and human leukemia (K562) cells in mice. Discovery of the application of the anticancer activity of DSePA is a novel invention in context of its probable usage in treatment for lung and leukemia cancer. More specifically the invention proposes a treatment regime and route of administering DSePA to inhibit the growth of human NSCLC (A549) and CML (K562).
For the optimization of the oral dosage of DSePA, a total of 24 mice bearing A549 or K562 xenograft of volume in the range of ˜50 mm^3 were divided into four groups (I-IV), each group comprising of six mice. […] The groups II, III and IV were administered DSePA dissolved in sterile saline through oral route at the dosage of 1, 2.5 and 5 mg/kg body weight respectively. The administration of DSePA was performed daily for 4 weeks. The tumor volume and body weight of mice from each group were monitored daily for a total period of 30 days from the day of start. The animals were also checked for mortality if any throughout the study period.
Animal maintenance—All animal studies were approved by the Institutional Animal Ethics Committee. Animals were housed under standard conditions (20±2° C., 65-70% humidity, 12 h/12 h day/night cycle, balanced laboratory diet and tap water ad libitum.
Xenograft tumor model-A549 and K562 tumor models were developed by Anticancer Drug Screening Facility of Advanced Centre for Treatment, Research and Education in Cancer (ACTREC), India. Briefly, Male/female NOD-SCID aged 6-7 weeks were housed in the laboratory animal facility of ACTREC. Donor mice carrying K562 or A549 xenografts were developed by injecting 2×10^6 cells in 100 μl of DMEM/RPMI, subcutaneously in their right flank. When tumors attained the size of approximately 2000 mm^3, the animals were sacrificed. Tumors were obtained and further cut into 2-3 mm fragments and implanted subcutaneously in the right flank of 6-7 weeks old recipient SCID mice. Tumors were allowed to grow to a size of approximately 50 mm^3 following which animals were divided into groups of six animals each for evaluation. A fresh DSePA solution was prepared by dissolution in sterile saline before each administration by intraperitoneal/oral route. The tumor efficacy of DSePA was determined by monitoring parameters like tumor volume and T/C. Tumors were assumed spherical and volume was calculated using following equations (1 & 2): […]
Where d1 (mm) and d2 (mm) are diameters measured in two perpendicular planes. T/C is defined as the ratio of the mean tumor volume of DSePA treated groups with the mean tumor volume of control group on the day of observation.

[1] = 1 mg/kg body weight daily oral, day 1
[2] = 1 mg/kg body weight daily oral, day 5
[3] = 1 mg/kg body weight daily oral, day 9
[4] = 1 mg/kg body weight daily oral, day 12
[5] = 1 mg/kg body weight daily oral, day 15
[6] = 1 mg/kg body weight daily oral, day 18
[7] = 1 mg/kg body weight daily oral, day 21
[8] = 1 mg/kg body weight daily oral, day 24
[9] = 1 mg/kg body weight daily oral, day 27
[10] = 1 mg/kg body weight daily oral, day 32
[11] = 2.5 mg/kg body weight daily oral, day 1
[12] = 2.5 mg/kg body weight daily oral, day 5
[13] = 2.5 mg/kg body weight daily oral, day 9
[14] = 2.5 mg/kg body weight daily oral, day 12
[15] = 2.5 mg/kg body weight daily oral, day 15
[16] = 2.5 mg/kg body weight daily oral, day 18
[17] = 2.5 mg/kg body weight daily oral, day 21
[18] = 2.5 mg/kg body weight daily oral, day 24
[19] = 2.5 mg/kg body weight daily oral, day 27
[20] = 2.5 mg/kg body weight daily oral, day 32
[21] = 5 mg/kg body weight daily oral, day 1
[22] = 5 mg/kg body weight daily oral, day 5
[23] = 5 mg/kg body weight daily oral, day 9
[24] = 5 mg/kg body weight daily oral, day 12
[25] = 5 mg/kg body weight daily oral, day 15
[26] = 5 mg/kg body weight daily oral, day 18
[27] = 5 mg/kg body weight daily oral, day 21
[28] = 5 mg/kg body weight daily oral, day 24
[29] = 5 mg/kg body weight daily oral, day 27
[30] = 5 mg/kg body weight daily oral, day 32

O=C(O)CC[Se][Se]CCC(=O)O [DSePA, 3,3′-diselenodipropionic acid]
tumor growth inhibition vs control (1 mg/Kg body weight daily oral, two independent experiments): significantly (P<0.05) inhibited the growth
overall reduction (relative tumor volume vs tumor control) (1 mg/Kg orally daily, end of study period (30 days), n=12, P=0.011): ~3.7 folds
mortality (1 mg/Kg orally daily, two independent studies): did not show any mortality
% S (Survival) [1]: 100%
RTV (Relative Tumor Volume) [1]: 1
T/C (T (test)/C (control)) [1]: 1
% S (Survival) [2]: 100%
RTV (Relative Tumor Volume) [2]: 1.13
T/C (T (test)/C (control)) [2]: 0.80
% S (Survival) [3]: 100%
RTV (Relative Tumor Volume) [3]: 1.13
T/C (T (test)/C (control)) [3]: 0.79
% S (Survival) [4]: 100%
RTV (Relative Tumor Volume) [4]: 1.22
T/C (T (test)/C (control)) [4]: 0.48
% S (Survival) [5]: 100%
RTV (Relative Tumor Volume) [5]: 1.42
T/C (T (test)/C (control)) [5]: 0.37
% S (Survival) [6]: 100%
RTV (Relative Tumor Volume) [6]: 2.28
T/C (T (test)/C (control)) [6]: 0.38
% S (Survival) [7]: 100%
RTV (Relative Tumor Volume) [7]: 1.90
T/C (T (test)/C (control)) [7]: 0.33
% S (Survival) [8]: 100%
RTV (Relative Tumor Volume) [8]: 2.22
T/C (T (test)/C (control)) [8]: 0.24
% S (Survival) [9]: 100%
RTV (Relative Tumor Volume) [9]: 3.24
T/C (T (test)/C (control)) [9]: 0.32
% S (Survival) [10]: 100%
RTV (Relative Tumor Volume) [10]: 4.38
T/C (T (test)/C (control)) [10]: 0.36
% S (Survival) [11]: 100%
RTV (Relative Tumor Volume) [11]: 1
T/C (T (test)/C (control)) [11]: 1
% S (Survival) [12]: 100%
RTV (Relative Tumor Volume) [12]: 1.09
T/C (T (test)/C (control)) [12]: 0.76
% S (Survival) [13]: 100%
RTV (Relative Tumor Volume) [13]: 1.01
T/C (T (test)/C (control)) [13]: 0.70
% S (Survival) [14]: 100%
RTV (Relative Tumor Volume) [14]: 1.42
T/C (T (test)/C (control)) [14]: 0.56
% S (Survival) [15]: 100%
RTV (Relative Tumor Volume) [15]: 1.66
T/C (T (test)/C (control)) [15]: 0.43
% S (Survival) [16]: 100%
RTV (Relative Tumor Volume) [16]: 1.79
T/C (T (test)/C (control)) [16]: 0.30
% S (Survival) [17]: 100%
RTV (Relative Tumor Volume) [17]: 1.54
T/C (T (test)/C (control)) [17]: 0.26
% S (Survival) [18]: 100%
RTV (Relative Tumor Volume) [18]: 1.23
T/C (T (test)/C (control)) [18]: 0.13
% S (Survival) [19]: 100%
RTV (Relative Tumor Volume) [19]: 1.74
T/C (T (test)/C (control)) [19]: 0.17
% S (Survival) [20]: 100%
RTV (Relative Tumor Volume) [20]: 2.21
T/C (T (test)/C (control)) [20]: 0.18
% S (Survival) [21]: 100%
RTV (Relative Tumor Volume) [21]: 1
T/C (T (test)/C (control)) [21]: 1
% S (Survival) [22]: 100%
RTV (Relative Tumor Volume) [22]: 1.04
T/C (T (test)/C (control)) [22]: 0.73
% S (Survival) [23]: 100%
RTV (Relative Tumor Volume) [23]: 1.05
T/C (T (test)/C (control)) [23]: 0.73
% S (Survival) [24]: 100%
RTV (Relative Tumor Volume) [24]: 1.32
T/C (T (test)/C (control)) [24]: 0.52
% S (Survival) [25]: 100%
RTV (Relative Tumor Volume) [25]: 1.11
T/C (T (test)/C (control)) [25]: 0.29
% S (Survival) [26]: 100%
RTV (Relative Tumor Volume) [26]: 1.29
T/C (T (test)/C (control)) [26]: 0.22
% S (Survival) [27]: 100%
RTV (Relative Tumor Volume) [27]: 1.22
T/C (T (test)/C (control)) [27]: 0.21
% S (Survival) [28]: 100%
RTV (Relative Tumor Volume) [28]: 1.25
T/C (T (test)/C (control)) [28]: 0.13
% S (Survival) [29]: 100%
RTV (Relative Tumor Volume) [29]: 1.73
T/C (T (test)/C (control)) [29]: 0.17
% S (Survival) [30]: 100%
RTV (Relative Tumor Volume) [30]: 2.45
T/C (T (test)/C (control)) [30]: 0.20
tumor growth inhibition vs control (dosage optimization, 1 mg/kg body weight daily oral for 4 weeks): significantly (P<0.05) inhibited the growth of K562 tumor from the day 15 onwards
tumor growth inhibition vs control (dosage optimization, 2.5 mg/kg body weight daily oral for 4 weeks): significantly (P<0.05) inhibited the growth of K562 tumor from the day 15 onwards
tumor growth inhibition vs control (dosage optimization, 5 mg/kg body weight daily oral for 4 weeks): significantly (P<0.05) inhibited the growth of K562 tumor from the day 15 onwards
mortality (dosage optimization, 1, 2.5 and 5 mg/kg daily oral): did not show any mortality
T/C achieved (leukemia model, 1 mg/kg body weight daily oral): ≤ 0.42
minimum dosage to achieve optimum efficacy (oral daily): 1 mg/kg body weight
